Source: article PMC12389006, “In Vitro and In Vivo Evaluation of Alectinib-Loaded Dendrimer Nanoparticles as a Drug Delivery System for Non-Small Cell Lung Carcinoma” (Pharmaceutics, 2025)
Like-named read-outs stand apart in the source and are kept apart here.

Columns and labels:
[1] = system: A549 lung cancer cell line; experiment: MTT cytotoxicity assay; type: cell-based; conditions: Homo sapiens, A549, 72 h
Procedure: The A549 cell line, composed of human alveolar basal epithelial adenocarcinoma cells, was used for the in vitro evaluation. Cells were obtained from ATCC through the Faculty of Pharmacy […] University. To maintain the A549 lung cancer cell line, Roswell Park Memorial Institute (RPMI) was employed. The medium was supplemented with 2 mL of L-glutamine, 50 mL of fetal bovine serum (FBS), and 5 mL of penicillin-streptomycin. The frozen A549 cell vials, stored in liquid nitrogen at approximately -196 °C, were quickly thawed at 37 °C in a water bath. The contents were then diluted with 10 mL of pre-warmed media and then centrifuged at 1500 rpm for 10 min. After discarding the supernatant, the tube was gently agitated to disperse the cells, and fresh medium (15 mL) was added. […] Their confluency level was maintained within the ideal range of 80-90%. To assess cell viability, a 1:1 mixture of 50 μL of Trypan blue stain and 50 μL of cell solution was prepared in an Eppendorf tube. Then, 5 × 10^3 cells were inoculated into individual wells of 96-well microplates using 100 μL of medium. […] Negative control wells received 0.1% DMSO, while blank wells were filled with RPMI medium without cells. […] The absorbance of the formazan solution in each well was promptly quantified at 590 nm utilizing a 96-well plate reader manufactured by Biotech, and the IC50 values were calculated according to Equation (2).

[2] = system: resistance-induced overexpressed TGF-α HGF cells; design: method as in PMID 31857951; conditions: cited from earlier work
[3] = In vitro drug release, dialysis method in PBS; type: physicochemical; conditions: pH 6.8 PBS, 1.5% SLS, 37 °C
Procedure: In vitro drug release studies were performed using the dialysis method. A drug release study was conducted in vitro to measure the amount of drug released from the complex. […] The dissolution study was conducted using the USP II apparatus (paddle) under the following conditions: a stirring speed of 100 rpm, a temperature of 37.0 ± 0.5 °C, and volume of release media of 200 mL. The NP samples were placed in a plastic tube sealed with a dialysis membrane with a molecular weight cut-off (MWCO) of 14,000 Da, which was previously soaked in either buffer for 24 h. […] At predetermined time intervals, 1 mL aliquots were withdrawn and promptly replaced with fresh media. The collected samples were filtered by a 0.22 µm filter membrane and were subsequently injected into the HPLC system at a wavelength of 340 nm.

[4] = system: A549 cells; experiment: Scratch-wound assay for cell migration; type: cell-based, human; conditions: A549, 72 h
Procedure: After the cells reached full confluence and formed a uniform monolayer, a scratch approximately 1 mm wide was created across the cell layer using a sterile 200 μL micropipette tip. The wells were then gently washed with phosphate-buffered saline (PBS) to remove cellular debris. […] To evaluate wound closure, images of the scratch area were captured at the start of the experiment (0 h) and after 72 h of treatment. Image analysis was performed using ImageJ® software (version 1.4.3.67, Symmetry Software) to measure the wound area and assess cell migration quantitatively

[5] = system: H460 large lung cancer cells; type: in vivo; conditions: H460 xenograft mice, 20 mg/kg
Procedure: This study involved 24 male BALC mice, aged 5 weeks and weighing 20 ± 2 g, housed under controlled environmental conditions (temperature: 25.2 °C, humidity: 60 ± 5%, 12 h light–dark cycle) with ad libitum access to standard rodent chow and autoclaved water. […] Human lung large-cell carcinoma (H460) cells were cultured in RPMI 1640 medium, prepared through trypsinization and centrifugation, and underwent viability testing with Trypan blue exclusion, then were suspended in ECM Matrigel®. After 21 days of immunosuppression with 5 mg/kg dexamethasone administered intraperitoneally each mouse was subcutaneously injected in the right flank with 2.5 × 10^6 viable H460 cells. Tumor growth was monitored for 14 days using caliper measurements.
To establish an immunosuppressed xenograft model, dexamethasone (5 mg/kg) was administered to all mice for 21 days to suppress their immune response (Figure S8). Following immunosuppression, 2.5 × 10^6 H460 large lung cancer cells were subcutaneously injected into the mice, and tumor growth was monitored every day.

[6] = system: KARPAS 299; conditions: cited from earlier work
[7] = system: nB1 (neuroblastoma); conditions: cited from earlier work
[8] = design: method as in PMID 36015320; conditions: cited from earlier work
[9] = design: method as in PMID 36015320; conditions: cited from earlier work; remark: listed apart in the source
[10] = system: NCI-H2228 (lung cancer); conditions: cited from earlier work
[11] = Pharmacokinetic study in rats, LC-MS/MS of plasma; type: in vivo, Wistar rats; conditions: rat, 20 mg/kg oral; for AUC0-t: 20 mg/kg
Procedure: Quantification and identification of Alectinib were performed using liquid chromatography coupled with mass spectrometry (LC/MS), employing rosuvastatin as the internal standard (IS). […] Detection was carried out with an API-3000 triple quadrupole mass spectrometer (LCMS-2010A, Shimadzu, Japan) featuring an electrospray ionization (ESI) source operated in positive ion mode. […] Detection was achieved using multiple reaction monitoring (MRM) for specific m/z transitions. […] Prior to the experiment, the animals were fasted overnight with free access to water and were marked on the tail for individual identification. The rats were randomly divided into two groups. […] Blood samples were collected from the tail after warming for 30 s using a hot pad to facilitate sampling. […] Sample preparation was carried out using the liquid–liquid extraction (LLE) technique. Frozen plasma samples were thawed at room temperature, vortexed to ensure uniform mixing, and combined with 500 µL acetonitrile (ACN) as diluent, 300 µL plasma, and 50 µL rosuvastatin as the internal standard. The mixture was vortexed for 2 min, centrifuged at 4000 rpm for 15 min, and 200 µL of the supernatant was transferred into LC-MS insert vials. Subsequently, 20 µL of the processed sample was analyzed using LC-MS/MS for quantification and pharmacokinetic evaluation.

[12] = system: A549 cells; design: method as in Ata et al.; conditions: ref Ata et al.; cited from earlier work
[13] = pH 1.2 and 2.5; cited from earlier work

Alectinib released over 48 h [3]: 11.1% ± 0.11
AUC(0-inf) ([11]; male, Wistar, plasma): 11800 ng·h/mL
half-life ([11]; male, Wistar, plasma): 15.4 ± 1.6 h
k el ([11]; male, Wistar, plasma): 1.25e-05 s⁻¹
AUC0-t ([11]; male, Wistar, plasma, po, read-out: AUC0-t): 9840 ng·h/mL
C-max [11]: 313.83 ± 150.83 ng/mL
T-max [11]: 9.33 ± 1.1 h
absorption rate constant (Ka) ([11]; assumption of linear absorption): 0.43 h⁻¹
AUC0-t ([11]; listed as Free Alectinib): 9842.03 ± 3986 ng·h/mL
Structure (SMILES): CCc1cc2c(cc1N1CCC(N3CCOCC3)CC1)C(C)(C)c1[nH]c3cc(C#N)ccc3c1C2=O.Cl [Alectinib, 9-ethyl-6,6-dimethyl-8-[4-(morpholine-4-yl)piperidin-1-yl]-11-oxo-6,11-dihydro-5H-benzo[b]carbazole-3-carbonitrile hydrochloride]
IC50 [1]: 4190 nM
IC50 [2]: 38.2 nM
scratch assay outcome in words [4]: completely eradicated the cells
tumor outcome in words after 17 days of treatment [5]: minimal amount of residual tumor tissue
tumor regression / reduction after 17 days of treatment [5]: 75%
IC50 [6]: 3 nM
IC50 [7]: 4.5 nM
absolute bioavailability [8]: 37%
permeability [9]: 250 ×10⁻⁶ cm/s
IC50 [10]: 53 nM
IC50 [12]: 9.63 µg/mL
stability at low pH [13]: degradation of Alectinib at low pH
